Source: patent US4175081A, “5-Substituted thiadiazole ureas” (priority 1977, dated 1979)

Tests used:
Bean (BN) [1] = assay: Post-emergence herbicide test; assay type: in vivo, Phaseolus vulgaris var. Black Valentine; settings: Phaseolus vulgaris, post-emergence, 336 h, two weeks after treatment; for pest or weed control at 8966.8 g/ha: 8 lb/acre
How it was run: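 Bean seedlings (Phaseolus vulgaris var. Black Valentine) were grown in potting soil in 3' pots until the primary leaves expanded. They were then sprayed under a hood with a removable belt and fixed nozzle, using 50 ml formulations. Afterward they were returned to the greenhouse and watered only by sub-irrigation. Percent control was judged visually two weeks after treatment.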

Barnyard grass (BG) [2] = assay: Pre-emergence herbicide test; assay type: in vivo; settings: Echinochloa crus-galli, 336 h, two weeks after treatment; for pest or weed control at 8966.8 g/ha: 8 lb/acre
How it was run: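 Greenhouse pre-emergence spray test: pots seeded one day before treatment received compound at rates of 8 or 4 lb/acre (38 gal/acre). Visual injury/control scores for Echinochloa crus-galli taken at two weeks, with watering by sub-irrigation only.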

Corn (CN) [3] = assay: Pre-emergence herbicide test; assay type: in vivo; settings: Zea mays, 336 h, two weeks after treatment; for pest or weed control at 8966.8 g/ha: 8 lb/acre
How it was run: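 Visual injury/control ratings were made 2 weeks post-spray on corn pots seeded (4 seeds, seed-diameter depth) the day before treatment. Application was a belt-hood spray of 38 gal/acre delivering 8 lbs active per acre, with a 4 lbs/acre rate also formulated. Watering was by sub-irrigation throughout.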

Turnip (TP) [4] = assay: Pre-emergence herbicide test; assay type: in vivo, Brassica sp.; settings: Brassica rapa, pre-emergence, 336 h, two weeks after treatment; for pest or weed control at 8966.8 g/ha: 8 lb/acre
How it was run: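 In this pre-emergence greenhouse test, turnip was seeded on the surface of potting soil in 3' plastic pots, lightly covered with screened soil, and watered from below. One day later the pots were sprayed in a belt-fed spray hood. Watering continued only by sub-irrigation, and percent control was visually scored two weeks after treatment.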

Crabgrass (CG) [5] = assay: Post-emergence herbicide test; assay type: in vivo, Digitaria sanquinalis; settings: Digitaria sanguinalis, post-emergence, 336 h, two weeks after treatment; for pest or weed control at 8966.8 g/ha: 8 lb/acre
How it was run: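 Crabgrass (Digitaria sanquinalis) was surface seeded individually in 3' plastic pots of potting soil, covered with screened soil, and watered by sub-irrigation in greenhouse trays. Planting was staggered so seedlings reached the target stage together. Post-emergence sprays were applied in a hood with a removable belt and fixed nozzle, and control was visually rated two weeks after treatment.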

Johnson grass (JG) [6] = assay: Pre-emergence herbicide test; assay type: in vivo, Sorgum helepense; settings: Sorghum halepense, 336 h, two weeks after treatment; for pest or weed control at 8966.8 g/ha: 8 lb/acre
How it was run: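 Visual injury or control rating two weeks post-treatment, after pre-emergence spray of 8 or 4 lbs active per acre (38 gal/acre) onto pots sown the previous day. Greenhouse watering by sub-irrigation only.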

Turnip (TP) [7] = assay: Post-emergence herbicide test; assay type: in vivo, Brassica sp.; settings: Brassica rapa, post-emergence, 336 h, two weeks after treatment; for pest or weed control at 8966.8 g/ha: 8 lb/acre
How it was run: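 A greenhouse post-emergence herbicide test on turnip. Seeds were sown on the surface of potting soil in 3' plastic pots, lightly covered with screened soil and watered from below. Planting was timed so seedlings had 1 or 2 true leaves above the cotyledons at spraying, done in a hood with a fixed nozzle. Control or injury was scored by eye after two weeks.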

Crabgrass (CG) [8] = assay: Pre-emergence herbicide test; assay type: in vivo, Digitaria sanquinalis; settings: Digitaria sanguinalis, pre-emergence, 336 h, two weeks after treatment; for pest or weed control at 8966.8 g/ha: 8 lb/acre
How it was run: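 Crabgrass (Digitaria sanquinalis) was surface seeded in 3' plastic pots of potting soil, covered with screened soil, and watered by sub-irrigation in greenhouse trays. Pots were seeded one day before spraying in a hood with a moving belt and fixed nozzle. Plants stayed in the greenhouse on sub-irrigation, and pre-emergence control was rated visually two weeks after treatment.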

Cotton (CT) [9] = assay: Pre-emergence herbicide test; assay type: in vivo, Gossypium hirsutum var. DPL smooth leaf; settings: Gossypium hirsutum, 336 h, two weeks after treatment; for pest or weed control at 8966.8 g/ha: 8 lb/acre
How it was run: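 Visual injury/control ratings were taken at two weeks post-spray. Pots seeded a day earlier received compound pre-emergence at 8 lbs/acre, or 4 lbs/acre, in a 38 gallon/acre spray volume, and were then held in the greenhouse, watered only from below.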

[10] = test system: Yellow foxtail grass (YF); assay: Post-emergence herbicide test; assay type: in vivo, Setaria glauca; settings: Setaria, 336 h, two weeks after treatment; for pest or weed control at 8966.8 g/ha: 8 lb/acre
Protocol: (§1) Yellow foxtail grass (YF)--Setaria glauca
(§2) All crop and weed species were planted individually in 3' plastic pots containing potting soil. Four seeds each of corn, cotton, and snapbeans were seeded to a depth equal to the diameter of the seed. All other species were surface seeded and sprinkled with screened soil in an amount sufficient to cover the seed. Immediately after planting, all pots were watered by sub-irrigation in greenhouse trays. Pots for the pre-emergence phase were seeded one day before treatment.
Planting dates for the post-emergence phase were varied so that all seedlings would reach the desired stage of development simultaneously. The proper stage of seedling development for treatment in the post-emergence phase is as follows:
(§3) Compounds were tested at rates of application equivalent to 8 lbs. of actual compound per acre in a spray volume of 38 gallons per acre. Spray hood constants required to deliver the above volume are as follows:
(§4) Formulations for spray applications were prepared in 50 ml volumes with the following three components:
(§5) Formulations for the 4 lbs/acre rate were prepared by adjusting the amount of active ingredient accordingly.
(§6) Spray applications were made in a hood containing a removable belt and fixed spray nozzle. For passage through the spray hood, one pot of each specie (pre-emergence phase) was placed on the rear half of the flat. Treatments were removed to the greenhouse after spraying. Watering during the observation period was done only by sub-irrigation.
(§7) Two weeks after treatment, pre- and post-emergence injury or control was visually rated, and the results were as shown in the following tables. Pre-emergence data are provided in TABLE III and post-emergence data are provided in TABLE IV, for compounds having the formula illustrated in TABLE I. Correspondingly, pre-emergence and post-emergence data, respectively, are set forth in TABLES V AND VI, for compounds having the formula illustrated in TABLE II.

[11] = test system: Yellow foxtail grass (YF); assay: Pre-emergence herbicide test; assay type: in vivo, Setaria glauca; settings: Setaria, 336 h, two weeks after treatment; for pest or weed control at 8966.8 g/ha: 8 lb/acre
Protocol: as §1, §2, §3, §4, §5, §6, §7

Corn (CN) [12] = assay: Post-emergence herbicide test; assay type: in vivo; settings: Zea mays, 336 h, two weeks after treatment; for pest or weed control at 8966.8 g/ha: 8 lb/acre
How it was run: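 Greenhouse seedlings grown in potting soil and sprayed post-emergence at 8 lbs compound/acre (formulations also made for 4 lbs/acre) in 38 gallons/acre spray volume. Watering by sub-irrigation only. Injury or control rated visually two weeks after treatment.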

Amaranth pigweed (PW) [13] = assay: Pre-emergence herbicide test; assay type: in vivo, Amaranthus retroflexus; settings: 336 h, two weeks after treatment; for pest or weed control at 8966.8 g/ha: 8 lb/acre
How it was run: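 Visual injury or control ratings were made at two weeks on pre-emergence pots, sub-irrigated in the greenhouse. Seeds were sown a day before a hood spray delivering 8 lbs/acre (or 4 lbs/acre) of compound in 38 gallons per acre.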

Johnson grass (JG) [14] = assay: Post-emergence herbicide test; assay type: in vivo, Sorgum helepense; settings: Sorghum halepense, 336 h, two weeks after treatment; for pest or weed control at 8966.8 g/ha: 8 lb/acre
How it was run: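 Visual injury or control scores taken 2 weeks after a post-emergence spray of pot-grown plants. Application was 8 lbs/acre (or 4 lbs/acre) in 38 gal/acre. Plants were held in the greenhouse with sub-irrigation only.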

Amaranth pigweed (PW) [15] = assay: Post-emergence herbicide test; assay type: in vivo, Amaranthus retroflexus; settings: 336 h, two weeks after treatment; for pest or weed control at 8966.8 g/ha: 8 lb/acre
How it was run: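 Visual injury or control ratings were made two weeks after spraying, with greenhouse watering by sub-irrigation only. Treatment was post-emergence, when pigweed seedlings had 1 or 2 true leaves, at 8 lbs active compound per acre (4 lbs/acre formulations also made) in a 38 gallons-per-acre spray volume.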

Bean (BN) [16] = assay: Pre-emergence herbicide test; assay type: in vivo, Phaseolus vulgaris var. Black Valentine; settings: Phaseolus vulgaris, 336 h, two weeks after treatment; for pest or weed control at 8966.8 g/ha: 8 lb/acre
How it was run: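 Visual injury/control ratings were taken two weeks post-spray on sub-irrigated Phaseolus vulgaris var. Black Valentine. Pots were sown a day before treatment. Pre-emergence spray delivered 8 lbs actual compound per acre (or 4 lbs/acre) at 38 gallons per acre.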

Cotton (CT) [17] = assay: Post-emergence herbicide test; assay type: in vivo, Gossypium hirsutum var. DPL smooth leaf; settings: Gossypium hirsutum, post-emergence, 336 h, two weeks after treatment; for pest or weed control at 8966.8 g/ha: 8 lb/acre
How it was run: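 This greenhouse post-emergence test measured how well spray treatments controlled cotton. Seedlings of Gossypium hirsutum var. DPL smooth leaf, with expanded cotyledons and a first true leaf 1' in length, were sprayed with 50 ml formulations in a belt-fed spray hood. They were then returned to the greenhouse and watered only by sub-irrigation. Injury was scored visually as % control after two weeks.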

Barnyard grass (BG) [18] = assay: Post-emergence herbicide test; assay type: in vivo; settings: Echinochloa crus-galli, 336 h, two weeks after treatment; for pest or weed control at 8966.8 g/ha: 8 lb/acre
How it was run: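 Greenhouse pot-grown barnyard grass seedlings sprayed post-emergence at 8 lbs active compound per acre (some at 4 lbs/acre) in 38 gallons per acre, then sub-irrigated. Injury or control rated visually two weeks after treatment.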

| SMILES | pest or weed control at 8966.8 g/ha (Bean (BN) [1]) [%] | pest or weed control at 8966.8 g/ha (Barnyard grass (BG) [2]) [%] | pest or weed control at 8966.8 g/ha (Corn (CN) [3]) [%] | pest or weed control at 8966.8 g/ha (Turnip (TP) [4]) [%] | pest or weed control at 8966.8 g/ha (Crabgrass (CG) [5]) [%] | pest or weed control at 8966.8 g/ha (Johnson grass (JG) [6]) [%] | pest or weed control at 8966.8 g/ha (Turnip (TP) [7]) [%] | pest or weed control at 8966.8 g/ha (Crabgrass (CG) [8]) [%] | pest or weed control at 8966.8 g/ha (Cotton (CT) [9]) [%] | pest or weed control at 8966.8 g/ha [10] [%] | pest or weed control at 8966.8 g/ha [11] [%] | pest or weed control at 8966.8 g/ha (Corn (CN) [12]) [%] | pest or weed control at 8966.8 g/ha (Amaranth pigweed (PW) [13]) [%] | pest or weed control at 8966.8 g/ha (Johnson grass (JG) [14]) [%] | pest or weed control at 8966.8 g/ha (Amaranth pigweed (PW) [15]) [%] | pest or weed control at 8966.8 g/ha (Bean (BN) [16]) [%] | pest or weed control at 8966.8 g/ha (Cotton (CT) [17]) [%] | pest or weed control at 8966.8 g/ha (Barnyard grass (BG) [18]) [%] | further results |
| --- | --- | --- | --- | --- | --- | --- | --- | --- | --- | --- | --- | --- | --- | --- | --- | --- | --- | --- | --- |
| CN(C)C(=O)N(C)c1nnc(C(F)(F)F)s1 [Example 4, 1,1,3-Trimethyl-3-[5-Trifluoromethyl-2-(1,3,4-Thiadiazolyl)] Urea] | – | – | – | – | – | – | – | – | – | – | – | – | – | – | – | – | – | – | pest or weed control at 4483.4 g/ha (Bean (BN) [1]; 4 lb/acre): 100%; pest or weed control at 4483.4 g/ha (Barnyard grass (BG) [2]; 4 lb/acre): 90%; pest or weed control at 4483.4 g/ha (Corn (CN) [3]; 4 lb/acre): 70%; pest or weed control at 4483.4 g/ha (Turnip (TP) [4]; 4 lb/acre): 100%; pest or weed control at 4483.4 g/ha (Crabgrass (CG) [5]; 4 lb/acre): 80%; pest or weed control at 4483.4 g/ha (Johnson grass (JG) [6]; 4 lb/acre): 40%; pest or weed control at 4483.4 g/ha (Turnip (TP) [7]; 4 lb/acre): 100%; pest or weed control at 4483.4 g/ha (Crabgrass (CG) [8]; 4 lb/acre): 100%; pest or weed control at 4483.4 g/ha (Cotton (CT) [9]; 4 lb/acre): 70%; pest or weed control at 4483.4 g/ha ([10]; 4 lb/acre): 90%; pest or weed control at 4483.4 g/ha ([11]; 4 lb/acre): 80%; pest or weed control at 4483.4 g/ha (Corn (CN) [12]; 4 lb/acre): 100%; pest or weed control at 4483.4 g/ha (Amaranth pigweed (PW) [13]; 4 lb/acre): 100%; pest or weed control at 4483.4 g/ha (Johnson grass (JG) [14]; 4 lb/acre): 40%; pest or weed control at 4483.4 g/ha (Amaranth pigweed (PW) [15]; 4 lb/acre): 100%; pest or weed control at 4483.4 g/ha (Bean (BN) [16]; 4 lb/acre): 90%; pest or weed control at 4483.4 g/ha (Cotton (CT) [17]; 4 lb/acre): 100%; pest or weed control at 4483.4 g/ha (Barnyard grass (BG) [18]; 4 lb/acre): 60% |
| O=C(Nc1ccccc1)Nc1nnc(C(F)(F)F)s1 [Example 14] | 100 | 10 | 50 | 10 | 10 | 20 | 10 | 10 | 50 | 10 | 10 | 50 | 90 | 20 | 90 | 100 | 50 | 10 | – |
| CNC(=O)Nc1nnc(OC)s1 [Example 24] | – | 10 | 30 | 10 | 30 | 10 | 60 | 10 | 10 | 20 | 10 | 20 | 60 | 20 | 90 | 60 | 70 | 20 | – |
| CCNC(=O)Nc1nnc(SC)s1 [Example 28] | 50 | 50 | 10 | 0 | 20 | 20 | 50 | 40 | 40 | 20 | 30 | 20 | 30 | 20 | 30 | 80 | 70 | 20 | – |
| CSc1nnc(NC(=O)NC(C)C)s1 [Example 30] | 100 | 10 | 10 | – | 20 | 10 | 40 | 20 | 10 | 20 | 10 | 20 | 10 | 20 | 50 | 50 | 70 | 20 | – |
